Experimental data taken from the supplement of paper PMC10307832.

How the values were obtained:
Assay in all cases: relative viability (nuclei count vs DMSO), 5 days (fraction); higher = more cells survive
Wnt-C59 + Tozasertib = compound: CC1=NC=CC(=C1)C2=CC=C(C=C2)CC(=O)NC3=CC=C(C=C3)C4=CN=CC=C4 [Wnt-C59] + Cc1cc(Nc2cc(N3CCN(C)CC3)nc(Sc3ccc(NC(=O)C4CC4)cc3)n2)n[nH]1 [Tozasertib] (partner 0.1 µM)
In short: (§1)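 Relative viability is defined as nuclei in treated wells over nuclei in vehicle wells. Duplicate plates were run and medians reported. Lung cancer cell lines in 1536-well plates were dosed by pin tool one day after seeding, with one drug or with a fixed anchor-drug dose plus five library-drug doses (not always all listed) in √10 steps, and nuclei were counted after 5 days.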

Wnt-C59 + OSI-027 = compound: CC1=NC=CC(=C1)C2=CC=C(C=C2)CC(=O)NC3=CC=C(C=C3)C4=CN=CC=C4 [Wnt-C59] + COc1cccc2cc(-c3nc([C@H]4CC[C@H](C(=O)O)CC4)n4ncnc(N)c34)[nH]c12 [OSI-027] (partner 0.5 µM)
In short: as §1

Wnt-C59 + Luminespib = compound: CC1=NC=CC(=C1)C2=CC=C(C=C2)CC(=O)NC3=CC=C(C=C3)C4=CN=CC=C4 [Wnt-C59] + CCNC(=O)c1noc(-c2cc(C(C)C)c(O)cc2O)c1-c1ccc(CN2CCOCC2)cc1 [Luminespib] (partner 0.01 µM)
In short: as §1

Lapatinib + Trametinib = compound: CS(=O)(=O)CCNCc1ccc(-c2ccc3ncnc(Nc4ccc(OCc5cccc(F)c5)c(Cl)c4)c3c2)o1 [Lapatinib] + CC(=O)Nc1cccc(-n2c(=O)n(C3CC3)c(=O)c3c(Nc4ccc(I)cc4F)n(C)c(=O)c(C)c32)c1 [Trametinib] (partner 0.02 µM)
In short: as §1

UMC-11 showed a relative viability (Wnt-C59 + Tozasertib; first compound 0.001 µM) of 0.214, a relative viability (Wnt-C59 + Tozasertib; first compound 0.01 µM) of 0.197 and a relative viability (Wnt-C59 + Tozasertib; first compound 0.03162 µM) of 0.203. The relative viability (Wnt-C59 + Tozasertib; first compound 0.1 µM) was 0.226, the relative viability (Wnt-C59 + OSI-027; first compound 0.001 µM) was 0.464 and the relative viability (Wnt-C59 + OSI-027; first compound 0.01 µM) was 0.495. For the same cell line, the relative viability (Wnt-C59 + OSI-027; first compound 0.03162 µM) was 0.477, the relative viability (Wnt-C59 + OSI-027; first compound 0.1 µM) was 0.462 and the relative viability (Wnt-C59 + Luminespib; first compound 0.001 µM) was 0.932. For the same cell line, the relative viability (Wnt-C59 + Luminespib; first compound 0.01 µM) was 1.1, the relative viability (Wnt-C59 + Luminespib; first compound 0.03162 µM) was 1.19 and the relative viability (Wnt-C59 + Luminespib; first compound 0.1 µM) was 0.979. For the same cell line, the relative viability (Lapatinib + Trametinib; first compound 0.02 µM) was 0.293, the relative viability (Lapatinib + Trametinib; first compound 0.06325 µM) was 0.617 and the relative viability (Lapatinib + Trametinib; first compound 0.2 µM) was 0.69. The relative viability (Lapatinib + Trametinib; first compound 0.6325 µM) was 0.76 and the relative viability (Lapatinib + Trametinib; first compound 2 µM) was 0.676.
